{"source": "BigSolDB 2.1"}
{"smiles": "Nc1cccc(N)n1", "values": [{"measurement": "solubility (mole fraction)", "setting": "in ethanol, 266.95 K", "result": 0.0751}, {"measurement": "solubility (mole fraction)", "setting": "in ethanol, 270.35 K", "result": 0.0853}, {"measurement": "solubility (mole fraction)", "setting": "in ethanol, 274.15 K", "result": 0.0992}, {"measurement": "solubility (mole fraction)", "setting": "in ethanol, 277.45 K", "result": 0.108}, {"measurement": "solubility (mole fraction)", "setting": "in ethanol, 281.15 K", "result": 0.123}, {"measurement": "solubility (mole fraction)", "setting": "in ethanol, 286.35 K", "result": 0.148}, {"measurement": "solubility (mole fraction)", "setting": "in ethanol, 290.15 K", "result": 0.166}, {"measurement": "solubility (mole fraction)", "setting": "in ethanol, 293.55 K", "result": 0.182}, {"measurement": "solubility (mole fraction)", "setting": "in ethanol, 297.15 K", "result": 0.204}, {"measurement": "solubility (mole fraction)", "setting": "in ethanol, 301.15 K", "result": 0.226}, {"measurement": "solubility (mole fraction)", "setting": "in ethanol, 304.55 K", "result": 0.236}, {"measurement": "solubility (mole fraction)", "setting": "in ethanol, 307.95 K", "result": 0.266}, {"measurement": "solubility (mole fraction)", "setting": "in ethanol, 312.05 K", "result": 0.282}, {"measurement": "solubility (mole fraction)", "setting": "in ethanol, 316.25 K", "result": 0.319}, {"measurement": "solubility (mole fraction)", "setting": "in ethanol, 321.25 K", "result": 0.342}, {"measurement": "solubility (mole fraction)", "setting": "in ethylbenzene, 273.25 K", "result": 0.00022}, {"measurement": "solubility (mole fraction)", "setting": "in ethylbenzene, 277.15 K", "result": 0.00026}, {"measurement": "solubility (mole fraction)", "setting": "in ethylbenzene, 282.25 K", "result": 0.00033}, {"measurement": "solubility (mole fraction)", "setting": "in ethylbenzene, 285.55 K", "result": 0.00035}, {"measurement": "solubility (mole fraction)", "setting": "in ethylbenzene, 289.45 K", "result": 0.00046}, {"measurement": "solubility (mole fraction)", "setting": "in ethylbenzene, 293.05 K", "result": 0.00049}, {"measurement": "solubility (mole fraction)", "setting": "in ethylbenzene, 298.65 K", "result": 0.00066}, {"measurement": "solubility (mole fraction)", "setting": "in ethylbenzene, 302.25 K", "result": 0.00069}, {"measurement": "solubility (mole fraction)", "setting": "in ethylbenzene, 305.35 K", "result": 0.00086}, {"measurement": "solubility (mole fraction)", "setting": "in ethylbenzene, 309.55 K", "result": 0.0009}, {"measurement": "solubility (mole fraction)", "setting": "in ethylbenzene, 313.15 K", "result": 0.00113}, {"measurement": "solubility (mole fraction)", "setting": "in ethylbenzene, 317.35 K", "result": 0.0012}, {"measurement": "solubility (mole fraction)", "setting": "in ethylbenzene, 321.25 K", "result": 0.0015}, {"measurement": "solubility (mole fraction)", "setting": "in ethylbenzene, 326.15 K", "result": 0.00164}, {"measurement": "solubility (mole fraction)", "setting": "in ethylbenzene, 329.45 K", "result": 0.00197}, {"measurement": "solubility (mole fraction)", "setting": "in ethylbenzene, 333.35 K", "result": 0.00212}, {"measurement": "solubility (mole fraction)", "setting": "in ethylbenzene, 336.95 K", "result": 0.00252}, {"measurement": "solubility (mole fraction)", "setting": "in ethylbenzene, 341.05 K", "result": 0.00288}, {"measurement": "solubility (mole fraction)", "setting": "in ethylbenzene, 346.25 K", "result": 0.0033}, {"measurement": "solubility (mole fraction)", "setting": "in ethylbenzene, 349.55 K", "result": 0.00385}, {"measurement": "solubility (mole fraction)", "setting": "in ethylbenzene, 353.05 K", "result": 0.0043}, {"measurement": "solubility (mole fraction)", "setting": "in ethylbenzene, 357.05 K", "result": 0.00474}, {"measurement": "solubility (mole fraction)", "setting": "in ethylbenzene, 361.15 K", "result": 0.00577}, {"measurement": "solubility (mole fraction)", "setting": "in isopropanol, 266.25 K", "result": 0.0222}, {"measurement": "solubility (mole fraction)", "setting": "in isopropanol, 269.95 K", "result": 0.028}, {"measurement": "solubility (mole fraction)", "setting": "in isopropanol, 274.15 K", "result": 0.0302}, {"measurement": "solubility (mole fraction)", "setting": "in isopropanol, 277.55 K", "result": 0.0379}, {"measurement": "solubility (mole fraction)", "setting": "in isopropanol, 281.15 K", "result": 0.0401}, {"measurement": "solubility (mole fraction)", "setting": "in isopropanol, 285.65 K", "result": 0.0512}, {"measurement": "solubility (mole fraction)", "setting": "in isopropanol, 290.15 K", "result": 0.0565}, {"measurement": "solubility (mole fraction)", "setting": "in isopropanol, 293.65 K", "result": 0.068}, {"measurement": "solubility (mole fraction)", "setting": "in isopropanol, 297.25 K", "result": 0.0732}, {"measurement": "solubility (mole fraction)", "setting": "in isopropanol, 301.15 K", "result": 0.0887}, {"measurement": "solubility (mole fraction)", "setting": "in isopropanol, 305.15 K", "result": 0.0976}, {"measurement": "solubility (mole fraction)", "setting": "in isopropanol, 308.25 K", "result": 0.114}, {"measurement": "solubility (mole fraction)", "setting": "in isopropanol, 311.15 K", "result": 0.12}, {"measurement": "solubility (mole fraction)", "setting": "in isopropanol, 315.85 K", "result": 0.147}, {"measurement": "solubility (mole fraction)", "setting": "in isopropanol, 319.25 K", "result": 0.159}, {"measurement": "solubility (mole fraction)", "setting": "in methanol, 266.15 K", "result": 0.0598}, {"measurement": "solubility (mole fraction)", "setting": "in methanol, 269.95 K", "result": 0.066}, {"measurement": "solubility (mole fraction)", "setting": "in methanol, 274.15 K", "result": 0.0779}, {"measurement": "solubility (mole fraction)", "setting": "in methanol, 278.05 K", "result": 0.0888}, {"measurement": "solubility (mole fraction)", "setting": "in methanol, 281.15 K", "result": 0.0933}, {"measurement": "solubility (mole fraction)", "setting": "in methanol, 285.95 K", "result": 0.111}, {"measurement": "solubility (mole fraction)", "setting": "in methanol, 290.15 K", "result": 0.125}, {"measurement": "solubility (mole fraction)", "setting": "in methanol, 297.15 K", "result": 0.15}, {"measurement": "solubility (mole fraction)", "setting": "in methanol, 301.15 K", "result": 0.165}, {"measurement": "solubility (mole fraction)", "setting": "in methanol, 304.55 K", "result": 0.178}, {"measurement": "solubility (mole fraction)", "setting": "in methanol, 307.95 K", "result": 0.188}, {"measurement": "solubility (mole fraction)", "setting": "in methanol, 311.15 K", "result": 0.207}, {"measurement": "solubility (mole fraction)", "setting": "in methanol, 317.85 K", "result": 0.233}, {"measurement": "solubility (mole fraction)", "setting": "in o-xylene, 273.35 K", "result": 0.00128}, {"measurement": "solubility (mole fraction)", "setting": "in o-xylene, 277.15 K", "result": 0.0014}, {"measurement": "solubility (mole fraction)", "setting": "in o-xylene, 282.25 K", "result": 0.00185}, {"measurement": "solubility (mole fraction)", "setting": "in o-xylene, 285.55 K", "result": 0.00201}, {"measurement": "solubility (mole fraction)", "setting": "in o-xylene, 289.45 K", "result": 0.00252}, {"measurement": "solubility (mole fraction)", "setting": "in o-xylene, 293.65 K", "result": 0.00283}, {"measurement": "solubility (mole fraction)", "setting": "in o-xylene, 297.55 K", "result": 0.00351}, {"measurement": "solubility (mole fraction)", "setting": "in o-xylene, 302.25 K", "result": 0.00395}, {"measurement": "solubility (mole fraction)", "setting": "in o-xylene, 305.35 K", "result": 0.00469}, {"measurement": "solubility (mole fraction)", "setting": "in o-xylene, 309.55 K", "result": 0.00517}, {"measurement": "solubility (mole fraction)", "setting": "in o-xylene, 314.15 K", "result": 0.0064}, {"measurement": "solubility (mole fraction)", "setting": "in o-xylene, 317.35 K", "result": 0.00695}, {"measurement": "solubility (mole fraction)", "setting": "in o-xylene, 321.25 K", "result": 0.00838}, {"measurement": "solubility (mole fraction)", "setting": "in o-xylene, 325.95 K", "result": 0.00937}, {"measurement": "solubility (mole fraction)", "setting": "in o-xylene, 329.45 K", "result": 0.011}, {"measurement": "solubility (mole fraction)", "setting": "in o-xylene, 333.35 K", "result": 0.0121}, {"measurement": "solubility (mole fraction)", "setting": "in o-xylene, 336.95 K", "result": 0.0144}, {"measurement": "solubility (mole fraction)", "setting": "in o-xylene, 341.15 K", "result": 0.0153}, {"measurement": "solubility (mole fraction)", "setting": "in o-xylene, 346.25 K", "result": 0.0194}, {"measurement": "solubility (mole fraction)", "setting": "in o-xylene, 349.55 K", "result": 0.0226}, {"measurement": "solubility (mole fraction)", "setting": "in o-xylene, 353.45 K", "result": 0.024}, {"measurement": "solubility (mole fraction)", "setting": "in o-xylene, 357.05 K", "result": 0.0292}, {"measurement": "solubility (mole fraction)", "setting": "in o-xylene, 361.05 K", "result": 0.034}, {"measurement": "solubility (mole fraction)", "setting": "in o-xylene, 361.25 K", "result": 0.0367}, {"measurement": "solubility (mole fraction)", "setting": "in toluene, 273.25 K", "result": 0.00149}, {"measurement": "solubility (mole fraction)", "setting": "in toluene, 277.15 K", "result": 0.00191}, {"measurement": "solubility (mole fraction)", "setting": "in toluene, 281.25 K", "result": 0.00214}, {"measurement": "solubility (mole fraction)", "setting": "in toluene, 285.55 K", "result": 0.0027}, {"measurement": "solubility (mole fraction)", "setting": "in toluene, 289.45 K", "result": 0.00304}, {"measurement": "solubility (mole fraction)", "setting": "in toluene, 293.65 K", "result": 0.00375}, {"measurement": "solubility (mole fraction)", "setting": "in toluene, 297.55 K", "result": 0.00417}, {"measurement": "solubility (mole fraction)", "setting": "in toluene, 301.45 K", "result": 0.0051}, {"measurement": "solubility (mole fraction)", "setting": "in toluene, 305.35 K", "result": 0.00558}, {"measurement": "solubility (mole fraction)", "setting": "in toluene, 309.55 K", "result": 0.00704}, {"measurement": "solubility (mole fraction)", "setting": "in toluene, 313.45 K", "result": 0.00733}, {"measurement": "solubility (mole fraction)", "setting": "in toluene, 317.35 K", "result": 0.00919}, {"measurement": "solubility (mole fraction)", "setting": "in toluene, 321.25 K", "result": 0.00942}, {"measurement": "solubility (mole fraction)", "setting": "in toluene, 325.55 K", "result": 0.0124}, {"measurement": "solubility (mole fraction)", "setting": "in toluene, 329.45 K", "result": 0.0127}, {"measurement": "solubility (mole fraction)", "setting": "in toluene, 333.35 K", "result": 0.0162}, {"measurement": "solubility (mole fraction)", "setting": "in toluene, 337.25 K", "result": 0.0164}, {"measurement": "solubility (mole fraction)", "setting": "in toluene, 341.15 K", "result": 0.0207}, {"measurement": "solubility (mole fraction)", "setting": "in toluene, 345.65 K", "result": 0.022}, {"measurement": "solubility (mole fraction)", "setting": "in toluene, 349.55 K", "result": 0.0277}, {"measurement": "solubility (mole fraction)", "setting": "in toluene, 353.45 K", "result": 0.0283}, {"measurement": "solubility (mole fraction)", "setting": "in toluene, 357.35 K", "result": 0.0355}]}
